Measurements as given in BigSolDB 2.1.

For `O=C(CCc1ccc(O)cc1)c1c(O)cc(O)cc1O`, the solubility (mole fraction) (in 1,4-dioxane, 288.2 K) was 0.0211, the solubility (mole fraction) (in 1,4-dioxane, 298.2 K) was 0.0249 and the solubility (mole fraction) (in 1,4-dioxane, 308.2 K) was 0.029. The solubility (mole fraction) (in 1,4-dioxane, 318.2 K) was 0.0331, the solubility (mole fraction) (in 1,4-dioxane, 328.2 K) was 0.0384 and the solubility (mole fraction) (in ethanol, 288.2 K) was 0.0345. It also gave a solubility (mole fraction) (in ethanol, 298.2 K) of 0.0373, a solubility (mole fraction) (in ethanol, 308.2 K) of 0.0399 and a solubility (mole fraction) (in ethanol, 318.2 K) of 0.0421. For the same compound, the solubility (mole fraction) (in ethanol, 328.2 K) was 0.0447, the solubility (mole fraction) (in ethyl acetate, 288.2 K) was 0.0266 and the solubility (mole fraction) (in ethyl acetate, 298.2 K) was 0.0283. It also gave a solubility (mole fraction) (in ethyl acetate, 308.2 K) of 0.0309, a solubility (mole fraction) (in ethyl acetate, 318.2 K) of 0.0343 and a solubility (mole fraction) (in ethyl acetate, 328.2 K) of 0.037. It also gave a solubility (mole fraction) (in isopropanol, 288.2 K) of 0.0351, a solubility (mole fraction) (in isopropanol, 298.2 K) of 0.0374 and a solubility (mole fraction) (in isopropanol, 308.2 K) of 0.039. For the same compound, the solubility (mole fraction) (in isopropanol, 318.2 K) was 0.0411, the solubility (mole fraction) (in isopropanol, 328.2 K) was 0.0429 and the solubility (mole fraction) (in methanol, 288.2 K) was 0.0245. For the same compound, the solubility (mole fraction) (in methanol, 298.2 K) was 0.0259, the solubility (mole fraction) (in methanol, 308.2 K) was 0.0275 and the solubility (mole fraction) (in methanol, 318.2 K) was 0.0299. It also gave a solubility (mole fraction) (in methanol, 328.2 K) of 0.0317, a solubility (mole fraction) (in n-butanol, 288.2 K) of 0.0336 and a solubility (mole fraction) (in n-butanol, 298.2 K) of 0.035. For the same compound, the solubility (mole fraction) (in n-butanol, 308.2 K) was 0.0362, the solubility (mole fraction) (in n-butanol, 318.2 K) was 0.0378 and the solubility (mole fraction) (in n-butanol, 328.2 K) was 0.0394. It also gave a solubility (mole fraction) (in n-butyl acetate, 288.2 K) of 0.0258, a solubility (mole fraction) (in n-butyl acetate, 298.2 K) of 0.0281 and a solubility (mole fraction) (in n-butyl acetate, 308.2 K) of 0.0305. For the same compound, the solubility (mole fraction) (in n-butyl acetate, 318.2 K) was 0.0323, the solubility (mole fraction) (in n-butyl acetate, 328.2 K) was 0.0346 and the solubility (mole fraction) (in n-hexanol, 288.2 K) was 0.0289. The solubility (mole fraction) (in n-hexanol, 298.2 K) was 0.0313, the solubility (mole fraction) (in n-hexanol, 308.2 K) was 0.0332 and the solubility (mole fraction) (in n-hexanol, 318.2 K) was 0.0347. For the same compound, the solubility (mole fraction) (in n-hexanol, 328.2 K) was 0.0366, the solubility (mole fraction) (in n-pentanol, 288.2 K) was 0.0301 and the solubility (mole fraction) (in n-pentanol, 298.2 K) was 0.0324. It also gave a solubility (mole fraction) (in n-pentanol, 308.2 K) of 0.034, a solubility (mole fraction) (in n-pentanol, 318.2 K) of 0.0357 and a solubility (mole fraction) (in n-pentanol, 328.2 K) of 0.0378. It also gave a solubility (mole fraction) (in n-propanol, 288.2 K) of 0.03, a solubility (mole fraction) (in n-propanol, 298.2 K) of 0.0318 and a solubility (mole fraction) (in n-propanol, 308.2 K) of 0.0336. It also gave a solubility (mole fraction) (in n-propanol, 318.2 K) of 0.0358, a solubility (mole fraction) (in n-propanol, 328.2 K) of 0.0382 and a solubility (mole fraction) (in sec-butanol, 288.2 K) of 0.0101. The solubility (mole fraction) (in sec-butanol, 298.2 K) was 0.014, the solubility (mole fraction) (in sec-butanol, 308.2 K) was 0.0175 and the solubility (mole fraction) (in sec-butanol, 318.2 K) was 0.0217. The solubility (mole fraction) (in sec-butanol, 328.2 K) was 0.0244, the solubility (mole fraction) (in water, 288.2 K) was 3.46e-06 and the solubility (mole fraction) (in water, 298.2 K) was 5.76e-06. It also gave a solubility (mole fraction) (in water, 308.2 K) of 1.12e-05, a solubility (mole fraction) (in water, 318.2 K) of 1.7e-05 and a solubility (mole fraction) (in water, 328.2 K) of 2.7e-05.
